In PubChem BioAssay (NCI):
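GI50 is the concentration that inhibits growth by half. TGI denotes the concentration required for complete inhibition of growth.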

Assays:
Assay in all cases: inhibition of tumour cell growth, NCI panel, 384-well format
[1] = system: 786-0 renal
[2] = system: A498 renal
[3] = system: A549 NSCLC
[4] = system: ACHN renal
[5] = system: BT-549 breast
[6] = system: CAKI-1 renal
[7] = system: CCRF-CEM leukemia
[8] = system: DU-145 prostate
[9] = system: EKVX NSCLC
[10] = system: HCT-116 colon
[11] = system: HCT-15 colon
[12] = system: HL-60(TB) leukemia
[13] = system: HOP-62 NSCLC
[14] = system: HOP-92 NSCLC
[15] = system: HS 578T breast
[16] = system: HT29 colon
[17] = system: IGROV1 ovarian
[18] = system: K-562 leukemia
[19] = system: KM12 colon
[20] = system: LOX IMVI melanoma
[21] = system: M14 melanoma
[22] = system: MALME-3M melanoma
[23] = system: MCF7 breast
[24] = system: MDA-MB-231 breast
[25] = system: MDA-MB-435 melanoma
[26] = system: MDA-MB-468 breast
[27] = system: MOLT-4 leukemia
[28] = system: NCI-H226 lung
[29] = system: NCI-H23 lung
[30] = system: NCI-H322M lung
[31] = system: NCI-H522 lung
[32] = system: NCI/ADR-RES ovarian
[33] = system: OVCAR-3 ovarian
[34] = system: OVCAR-4 ovarian
[35] = system: OVCAR-5 ovarian
[36] = system: OVCAR-8 ovarian
[37] = system: PC-3 prostate
[38] = system: RPMI-8226 leukemia
[39] = system: RXF 393 renal
[40] = system: SF-268 CNS
[41] = system: SF-295 CNS
[42] = system: SF-539 CNS
[43] = system: SK-MEL-2 melanoma
[44] = system: SK-MEL-28 melanoma
[45] = system: SK-OV-3 ovarian
[46] = system: SN12C renal
[47] = system: SNB-19 CNS
[48] = system: SNB-75 CNS
[49] = system: SW-620 colon
[50] = system: T-47D breast
[51] = system: TK-10 renal
[52] = system: U251 glioblastoma
[53] = system: UACC-257 melanoma
[54] = system: UACC-62 melanoma
[55] = system: UO-31 renal

Cn1c(CCCC(=O)O)nc2cc(N(CCCl)CCCl)ccc21
GI50 [1]: 90.6 µM | TGI [1]: > 100 µM | GI50 [2]: > 100 µM | TGI [2]: > 100 µM | GI50 [3]: > 100 µM | TGI [3]: > 100 µM | GI50 [4]: 68.3 µM | TGI [4]: > 100 µM | GI50 [5]: 57 µM | TGI [5]: > 100 µM | GI50 [6]: 55.4 µM | TGI [6]: > 100 µM | GI50 [7]: 17.9 µM | TGI [7]: 32.4 µM | GI50 [8]: > 100 µM | TGI [8]: > 100 µM | GI50 [9]: > 100 µM | TGI [9]: > 100 µM | GI50 [10]: 61.3 µM | TGI [10]: > 100 µM | GI50 [11]: > 100 µM | TGI [11]: > 100 µM | GI50 [12]: 17.3 µM | TGI [12]: 33.2 µM | GI50 [13]: 42 µM | TGI [13]: > 100 µM | GI50 [14]: > 100 µM | TGI [14]: > 100 µM | GI50 [15]: > 100 µM | TGI [15]: > 100 µM | GI50 [16]: > 100 µM | TGI [16]: > 100 µM | GI50 [17]: > 100 µM | TGI [17]: > 100 µM | GI50 [18]: > 100 µM | TGI [18]: > 100 µM | GI50 [19]: > 100 µM | TGI [19]: > 100 µM | GI50 [20]: 88.3 µM | TGI [20]: > 100 µM | GI50 [21]: 55.5 µM | TGI [21]: > 100 µM | GI50 [22]: > 100 µM | TGI [22]: > 100 µM | GI50 [23]: 71.3 µM | TGI [23]: > 100 µM | GI50 [24]: > 100 µM | TGI [24]: > 100 µM | GI50 [25]: > 100 µM | TGI [25]: > 100 µM | GI50 [26]: 11.9 µM | TGI [26]: 32.8 µM | GI50 [27]: 3.2 µM | TGI [27]: 10.3 µM | GI50 [28]: 93.1 µM | TGI [28]: > 100 µM | GI50 [29]: 60.3 µM | TGI [29]: > 100 µM | GI50 [30]: > 100 µM | TGI [30]: > 100 µM | GI50 [31]: 39.3 µM | TGI [31]: > 100 µM | GI50 [32]: > 100 µM | TGI [32]: > 100 µM | GI50 [33]: > 100 µM | TGI [33]: > 100 µM | GI50 [34]: > 100 µM | TGI [34]: > 100 µM | GI50 [35]: > 100 µM | TGI [35]: > 100 µM | GI50 [36]: 69.8 µM | TGI [36]: > 100 µM | GI50 [37]: > 100 µM | TGI [37]: > 100 µM | GI50 [38]: 39.8 µM | TGI [38]: > 100 µM | GI50 [39]: 41.7 µM | TGI [39]: > 100 µM | GI50 [40]: 35.6 µM | TGI [40]: > 100 µM | GI50 [41]: > 100 µM | TGI [41]: > 100 µM | GI50 [42]: 50.4 µM | TGI [42]: > 100 µM | GI50 [43]: > 100 µM | TGI [43]: > 100 µM | GI50 [44]: > 100 µM | TGI [44]: > 100 µM | GI50 [45]: > 100 µM | TGI [45]: > 100 µM | GI50 [46]: 34.7 µM | TGI [46]: > 100 µM | GI50 [47]: > 100 µM | TGI [47]: > 100 µM | GI50 [48]: > 100 µM | TGI [48]: > 100 µM | GI50 [49]: 72.7 µM | TGI [49]: > 100 µM | GI50 [50]: > 100 µM | TGI [50]: > 100 µM | GI50 [51]: > 100 µM | TGI [51]: > 100 µM | GI50 [52]: 47.1 µM | TGI [52]: > 100 µM | GI50 [53]: > 100 µM | TGI [53]: > 100 µM | GI50 [54]: 31.8 µM | TGI [54]: > 100 µM | GI50 [55]: > 100 µM | TGI [55]: > 100 µM
